Experimental data taken from ChEMBL document CHEMBL1201862, “PubChem BioAssay data set” (2004).
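The compound was tested at five concentrations on cells cultured in 96-well plates, with a 48-hour exposure period. Abbreviation: GI50, concentration required for 50% inhibition of growth.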 The source made the active and inactive calls. No stated cut-off is given here; in the data, active = GI50 up to about 1.1 µM and inactive = higher.

How the values were obtained:
Experiment in all cases: inhibition of tumour cell growth, NCI panel, 48 h
SR = test system: SR
EKVX = test system: EKVX
NCI-H23 = test system: NCI-H23
SK-MEL-5 = test system: SK-MEL-5
KM12 = test system: KM12
NCI-H226 = test system: NCI-H226
Malme-3M = test system: Malme-3M
SW-620 = test system: SW-620
UACC-62 = test system: UACC-62
SF-295 = test system: SF-295
COLO 205 = test system: COLO 205
A498 = test system: A498
SF-268 = test system: SF-268
SN12C = test system: SN12C
NCI-H522 = test system: NCI-H522
HL-60 = test system: HL-60
HCT-116 = test system: HCT-116
OVCAR-4 = test system: OVCAR-4
HOP-92 = test system: HOP-92
OVCAR-3 = test system: OVCAR-3
M19-MEL = test system: M19-MEL
LXFL 529 = test system: LXFL 529
SNB-75 = test system: SNB-75
SNB-19 = test system: SNB-19
786-0 = test system: 786-0
LOX IMVI = test system: LOX IMVI
CCRF-CEM = test system: CCRF-CEM
HCC 2998 = test system: HCC 2998
A549 = test system: A549
NCI-H460 = test system: NCI-H460
U-251 = test system: U-251
SF-539 = test system: SF-539
XF498 = test system: XF498
SK-OV-3 = test system: SK-OV-3
UACC-257 = test system: UACC-257
UO-31 = test system: UO-31
K562 = test system: K562
HT-29 = test system: HT-29
CAKI-1 = test system: CAKI-1
KM-20L2 = test system: KM-20L2
DLD-1 = test system: DLD-1
OVCAR-8 = test system: OVCAR-8
IGROV-1 = test system: IGROV-1
RXF 393 = test system: RXF 393
SK-MEL-28 = test system: SK-MEL-28
HOP-18 = test system: HOP-18
HOP-62 = test system: HOP-62
SNB-78 = test system: SNB-78
TK-10 = test system: TK-10
ACHN = test system: ACHN
M14 = test system: M14

Measured: GI50

COc1nc2c(nc(N)n2C2OC(CO)C(O)C(O)C2O)c(=O)[nH]1 (stereo unspecified)
inactive: SR > 100 µM | EKVX > 100 µM | NCI-H23 > 100 µM | SK-MEL-5 > 100 µM | KM12 > 100 µM | NCI-H226 > 100 µM | Malme-3M > 100 µM | SW-620 > 100 µM | UACC-62 > 100 µM | SF-295 > 100 µM | COLO 205 > 100 µM | A498 > 100 µM | SF-268 > 100 µM | SN12C > 100 µM | NCI-H522 > 100 µM | HL-60 > 100 µM | HCT-116 > 100 µM | OVCAR-4 > 100 µM | HOP-92 > 100 µM | OVCAR-3 > 100 µM | M19-MEL > 100 µM | LXFL 529 > 100 µM | SNB-75 > 100 µM | SNB-19 > 100 µM | 786-0 > 100 µM | LOX IMVI > 100 µM | CCRF-CEM > 100 µM | HCC 2998 > 100 µM | A549 > 100 µM | NCI-H460 > 100 µM | U-251 > 100 µM | SF-539 > 100 µM | XF498 > 100 µM | SK-OV-3 > 100 µM | UACC-257 > 100 µM | UO-31 > 100 µM | K562 > 100 µM | HT-29 > 100 µM | CAKI-1 > 100 µM | KM-20L2 > 100 µM | DLD-1 > 100 µM | OVCAR-8 > 100 µM | IGROV-1 > 100 µM | RXF 393 > 100 µM | SK-MEL-28 > 100 µM | HOP-18 > 100 µM | HOP-62 > 100 µM | SNB-78 > 100 µM | TK-10 > 100 µM | ACHN > 100 µM | M14 > 100 µM
